{
  "source": "patent US8178688B2",
  "about": "“Benzamidine derivatives, process for the preparation thereof and pharmaceutical composition comprising the same” (Dong Wha Pharmaceutical Co., Ltd., priority 2004, dated 2012)",
  "key": {"[1]": {"tested_on": "mouse models of ovalbumin-induced asthma", "assay": "Therapeutic effect in mouse model of asthma induced with ovalbumin (lung weight, total leukocytes in blood and BALF)", "type": "in vivo, C57BL/6 mice", "method": "The benzamidine compounds were assated for therapeutic effect on allergic inflammation in mouse models of ovalbumin-induced asthma. Starting on the day of immunization the benzamidine compounds were dosed for 17 consecutive days. The experimental animals were re-exposed to ovalbumin 14 days after the sensitization and then sacrificed 3 days after the re-exposure. Changes in lung weight, cellular components of peripheral blood and bronchoalveolar lavage fluid, and lung histopathology were observed.\nA total of 110 female C57BL/6 mice (7-week-old, SLC, Japan) were adapted to a laboratory environment for 6 days before being used in earnest experiments. While being housed at a densirt of five in a plastic cage, the experimental animals were breed in a breeding room with controlled temperature (20-25° C.) and humidity (30-35%). Under light-dark cycles of 12 hours, mice were allowed to have free access to feedstuff and tap water. While asthma was induced in 100 mice by ovalbumin, 10 mice were used as a non-treated group.\n200 mg of benzamidine compounds (Methansulfonic acid or Hydrochloride) were completely dissolved in 5 ml of sterilized distilled water. The benzamidine compound in the solutions was orally administered at doses of 200 mg per kg of body weight once a day from the day of the sensitization with ovalbumin. The control group was administered with equal volumes of sterilized distilled water in the same manner.\nA solution of 200 μg of ovalbumin (Grade VI; Sigma, st. Louis, Mo., USA) and 180 mg of aluminium hydroxide (Al(OH)3, dried powder gel; Aldrich, Milwaukee, USA) in 4 ml of physiological saline was allowed to stand at 4° C. overnight and was administered to the experimental animals (200 μl, abdominal injection) for sensitization. As for the non-treated group, a solution of only aluminium hydroxide in saline was injected. 15 days after sensitization, a 1.5% ovalbumin solution was sprayed in air using a nebulizer, followed by exposing the experimental animals to the spray for 10 min to induce asthma therein. The non-treated group was exposed only to saline in the same manner. All the experimental animals were sacrificed 3 days after the exposure.\nOn the final day of experiment, the lungs were separated form adjacent organs. The removed lungs were weight among individual animals, the relative weight of the lungs was calculated as a percentage of body weight using the following Equation 3. Relative weight of Lung(%)=(Absolute lung weight/Body weight)×100 Equation 3\nOn the final day of experiment, all the experimental animals were etherized and underwent laparotomy to expose the abdominal vena cava, from which 1 ml of blood was the taken. Using a hemocytometer, a blood sample was measured for total leukocyte counts in a ×10^3/1 mm^3 units.\nOn the final day of experiment, secretions present in bronchi and alveola were examined for cyrological constitution. After veing etherized, the experimental animals were operated to open the cervical region and the thorax. The jugular vein was allowed to bleed, followed by endotracheal intubation. 3 ml of phosphate buffered saline was injected twice through the tube and the thorax was massaged for 30 sec to obtain cell suspension from the lungs. Using a hemocytometer, a […] was measured for total leukocyte counts in a ×10^5/1 ml units."}, "[2]": {"tested_on": "osteoclast differentiation", "assay": "Inhibitory effects on osteoclast differentiation (co-culture of bone marrow cells with osteoblast, TRAP staining)", "type": "cell-based, mice", "settings": "Mus musculus, Osteoclast, 168 h; 1 m; co-culture of bone marrow cells and osteoblast, 7 days, TRAP-positive osteoclasts versus controls; read-out: % inhibitory activity on osteoclastogenesis", "method_in_brief": "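Bone marrow cells from 6–8-week male ddY mice co-cultured with neonatal ICR mouse calvarial osteoblasts in α-MEM/FBS with dexamethasone (10^−7M) and vitamin D3 (10^−8M) for 7 days, compound and medium renewed every 2–3 days. TRAP-positive cells with ≥3 nuclei counted; inhibition given as percent of control.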"}, "[3]": {"tested_on": "rat models subjected to rib fracture", "assay": "Effect of promoting fracture healing in rib fracture-induced rat model (callus volume, callus osteoid volume)", "type": "in vivo, SD rats", "method": "The benzamidine compounds were assayed for therapeutic effect on bone fracture in rat models subjected to rib fracture. Benzamidine derivates are dosed from 2 days after operation for 2 weeks, and the changes on the volume and histology of callus were observed.\nA total of 54 SD rats (8 weeks old upon receipt, Jung Ang Lab. Animal Co., Korea) were used. While being housed at a density of three to a plastic cage, the experimental animals were kept in a breeding room under controlled temperature (20-25° C.) and humidity (30-35%). Under light-dark cycles of 12 hours, the rats were allowed to have free access to feedstuff and tap water.\n200 mg of benzamidine compounds (Methansulfonic acid or Hydrochloride) were completely dissolved in 5 ml of sterilized distilled water. The benzamidine derivatives in the solutions was orally administered at doses of 200 mg per kg of body weight once a day for 2 weeks from day 2 of the surgery.\n8th and 9th rib of each animal was exposed by general operation under ketamine HCl and xylazine HCl anesthesia, and the exposed ribs were crossly dissected using surgical scissors. After rib-fracture, surgical wounds were closed with general skin suture.\n8th and 9th ribs of each animal were separated at sacrifice and then the long axis and short axis of callus were calculated as mm units. The volume of callus was calculated as following Equation 2. Callus volume(mm^3)=(a×b^2)/2 Equation 2 • a: long diameter of bony callus • b: short diameter of bony callus\nThe 8th rib including fracture sites of each rat was separated and fixed in 10% neutral buffered formalin, and then decalcified in decalcifying solution (24.4% formic acid, and 0.5N sodium hydroxide) for 5 days (mixed decalcifying solution was exchanges once a day for 5 days). After decalcification, the rib was embedded in paraffin, sectioned (3˜4 μm) and stained with hematoxylin-eosin or Masson's trichrome for composition of callus observation.\nOsteloid volume (OV/callus) in callus regions of prepared histological specimens were detected as % levels using automated image analysis (analySIS Image Processing; SIS, Germany) under microscopy."}},
  "note": "Marks after values point to notes of the source that are not given here.",
  "data": [
    {"smiles": "CNc1nc(-c2ccc(OCCCCCOc3ccc(C(=N)NO)cc3)cc2)c(CCCl)s1", "note": "[Example 115, N-hydroxy-4-(5-[4-(5-(2-chloroethyl)-2-methylamino-1,3-thiazol-4-yl)phenoxy]pentoxy)-benzamidine]", "values": [
      {"measurement": "Changes on the lung weight, Absolute", "setting": "[1]; 200 mg/kg oral once a day from sensitization, vehicle control 0.134 ± 0.012, sham 0.110 ± 0.009", "result": "0.114 ± 0.009", "unit": "g"},
      {"measurement": "Changes on the lung weight, Relative (%)", "setting": "[1]; 200 mg/kg oral once a day, % of body weight, vehicle control 0.780 ± 0.103, sham 0.694 ± 0.049", "result": "0.705 ± 0.046", "unit": "%"},
      {"measurement": "inhibition at 1 µM", "setting": "[2]", "result": 96, "unit": "%"},
      {"measurement": "Changes on callus volume (mm^3)", "setting": "[3]; 200 mg/kg oral once a day for 2 weeks from day 2 of surgery, 8th and 9th ribs, vehicle control 37.22 ± 8.23", "result": "24.06 ± 9.64* mm^3"},
      {"measurement": "Changes on callus osteoid volume (OV/callus, %)", "setting": "[3]; 200 mg/kg oral once a day for 2 weeks, 8th rib, vehicle control 35.88 ± 5.06", "result": "41.94 ± 6.33", "unit": "%"}
    ]}
  ]
}
